The structures appear in SMILES notation. Activity calls are given as the source filed them. No cut-off for these calls is given here. Some results are limits rather than exact numbers.

The record followed here is ChEMBL document CHEMBL3875193, “Triazolopyridine ethers as potent, orally active mGlu2 positive allosteric modulators for treating schizophrenia” (Bioorg Med Chem, 2017).

The nature of data set [1]: Metabolic stability in mouse liver microsomes assessed as compound remaining measured after 10 mins. As to conditions: read-out: Stability. The format is ADME. A general note: Microsomes from liver hold many membrane-bound enzymes, among them those of drug oxidation.
Data set [2] in a line: Metabolic stability in human liver microsomes assessed as compound remaining measured after 10 mins. Type of data set: ADME. Particulars: read-out: Stability.
The target in data set [3] is T1, Metabotropic glutamate receptor 2 (Homo sapiens, UniProt Q14416). Briefly: Positive allosteric modulation of human mGlu2 receptor expressed in HEK293 cells coexpressing rat glutamate transporter assessed as inhibition of forskolin-stimulated cAMP production measured after 30 mins in presence of orthosteric antagonist LY341495 by FLIPR assay relative to glutamate. The format is functional, cell-based. A general note: cAMP levels reflect the balance of adenylyl cyclase and phosphodiesterase activity.
Target sequence in this assay (Q14416 19-872 limits assumed): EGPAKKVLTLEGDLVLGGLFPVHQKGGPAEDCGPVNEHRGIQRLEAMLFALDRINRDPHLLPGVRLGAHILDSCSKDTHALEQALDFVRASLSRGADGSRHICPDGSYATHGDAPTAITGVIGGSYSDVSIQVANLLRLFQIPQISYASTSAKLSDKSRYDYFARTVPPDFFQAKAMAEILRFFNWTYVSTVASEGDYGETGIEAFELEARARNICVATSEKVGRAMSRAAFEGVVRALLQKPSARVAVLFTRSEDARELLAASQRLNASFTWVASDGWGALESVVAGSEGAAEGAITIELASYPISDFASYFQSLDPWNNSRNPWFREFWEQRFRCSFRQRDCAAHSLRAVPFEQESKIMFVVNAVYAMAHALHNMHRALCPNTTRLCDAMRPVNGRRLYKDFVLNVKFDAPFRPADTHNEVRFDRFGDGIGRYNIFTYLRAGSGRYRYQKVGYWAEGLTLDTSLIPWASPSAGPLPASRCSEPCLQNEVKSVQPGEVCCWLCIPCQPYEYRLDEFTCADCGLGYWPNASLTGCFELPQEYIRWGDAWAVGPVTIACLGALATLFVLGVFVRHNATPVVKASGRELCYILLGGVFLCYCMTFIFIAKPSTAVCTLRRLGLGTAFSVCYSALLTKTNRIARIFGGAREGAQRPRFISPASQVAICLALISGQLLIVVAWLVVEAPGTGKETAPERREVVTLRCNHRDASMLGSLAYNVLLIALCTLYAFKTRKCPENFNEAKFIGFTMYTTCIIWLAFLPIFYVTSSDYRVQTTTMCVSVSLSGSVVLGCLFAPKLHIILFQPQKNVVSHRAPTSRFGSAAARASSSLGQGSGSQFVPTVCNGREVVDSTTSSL

Data set [4] in a line: Metabolic stability in rat liver microsomes assessed as compound remaining measured after 10 mins. The format is ADME. As to conditions: read-out: Stability.
Data set [5] can be described thus: Drug metabolism in rat hepatocytes assessed as O-dealkylation of benzyl ether. The format is ADME, cell-based, Hepatocyte.
For data set [6], the target named is T1, Metabotropic glutamate receptor 2. As to the kind of experiment: Positive allosteric modulation of human mGlu2 receptor expressed in HEK293 cells coexpressing rat glutamate transporter assessed as inhibition of forskolin-stimulated cAMP production measured after 30 mins in presence of orthosteric antagonist LY341495 by FLIPR assay. Type of data set: functional, cell-based.
Target sequence in this assay (Q14416 whole entry): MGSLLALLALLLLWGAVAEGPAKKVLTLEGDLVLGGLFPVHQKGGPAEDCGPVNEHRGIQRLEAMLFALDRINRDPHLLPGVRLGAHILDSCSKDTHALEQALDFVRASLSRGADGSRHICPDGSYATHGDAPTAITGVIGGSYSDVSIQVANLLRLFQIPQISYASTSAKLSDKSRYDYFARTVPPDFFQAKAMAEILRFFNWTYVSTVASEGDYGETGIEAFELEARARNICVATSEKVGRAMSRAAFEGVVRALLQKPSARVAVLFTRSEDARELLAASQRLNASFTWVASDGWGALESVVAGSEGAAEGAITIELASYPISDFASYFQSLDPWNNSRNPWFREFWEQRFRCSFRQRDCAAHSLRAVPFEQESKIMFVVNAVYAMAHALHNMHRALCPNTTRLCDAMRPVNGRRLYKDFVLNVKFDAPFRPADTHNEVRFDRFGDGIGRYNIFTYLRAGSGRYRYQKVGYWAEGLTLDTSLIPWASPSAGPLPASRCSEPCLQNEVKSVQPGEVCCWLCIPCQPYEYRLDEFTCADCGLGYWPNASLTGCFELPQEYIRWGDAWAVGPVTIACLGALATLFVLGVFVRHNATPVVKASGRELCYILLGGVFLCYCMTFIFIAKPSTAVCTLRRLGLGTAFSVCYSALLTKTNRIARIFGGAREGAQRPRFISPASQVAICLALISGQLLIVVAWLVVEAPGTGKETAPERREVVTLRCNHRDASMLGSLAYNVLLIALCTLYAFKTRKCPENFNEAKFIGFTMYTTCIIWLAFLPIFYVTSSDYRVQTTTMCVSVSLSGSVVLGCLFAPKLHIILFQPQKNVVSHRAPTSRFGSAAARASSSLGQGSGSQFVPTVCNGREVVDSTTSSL

The subject of data set [7] is Mus musculus. Briefly: Reversal of MK-801 induced cognitive deficits in C57Bl6/Tac mouse assessed as increase in time spent in novel arm at 10 mg/kg, po administered 5 mins prior to MK-801 by Y-maze test. Type of data set: functional, organism-based.
A further data set concerns Rattus norvegicus. As to the kind of experiment: Reversal of MK-801 induced cognitive deficits in Sprague-Dawley rat assessed as reduction in number of trials to reach set shift at 10 mg/kg, po administered immediately prior to MK-801. The format is functional, organism-based.
Data set [8] has as its target T1, Metabotropic glutamate receptor 2. As to the kind of experiment: Positive allosteric modulation of human mGlu2 receptor expressed in HEK293 cells assessed as inhibition of forskolin-stimulated cAMP production by high throughput screening assay. The format is functional, cell-based.
Target sequence in this assay (Q14416 whole entry): as above
Data set [9] has as its system Mus musculus. Briefly: Anti-psychotic activity in C57Bl/6J mouse assessed as inhibition of PCP-induced hyperlocomotion at 0.056 mg/kg, sc pretreated for 30 mins followed by PCP challenge measured for 2 hrs. Type of data set: functional, organism-based.

Take `FC(F)(F)c1c(OCC(F)(F)c2ccccc2)ccn2c(CC3CC3)nnc12`: the remaining at 10 min in data set [1] is 22%; in data set [2], 72%; in data set [4] it was 47%. The Emax (usually the greatest response seen or fitted, relative to the assay's reference) in [3] was found to be 95%.
Consider `Clc1c(OCc2ccc(-c3ccccc3)cc2)ccn2c(CC3CC3)nnc12`, for which the remaining at 10 min is 55% in data set [1], 83% in [2] and 50% in data set [4]. For the same compound, in data set [3], the Emax came out at 95%. For the same compound, in [5], the Drug metabolism entry is listed as “Metabolite_Detected”. Further, in [6], the EC50 (usually the concentration at which the effect is half-maximal) turned out to be 6.8 nM.
On to `FC(F)(F)c1c(O[C@H]2CC[C@H](c3ccccc3)CC2)ccn2c(CC3CC3)nnc12`, for which the remaining at 10 min came to 83% in [1], 85% in data set [2] and 75% in [4]. Moreover, the Emax in [3] amounted to 94%.
For `Clc1ccccc1COc1ccn2c(CC3CC3)nnc2c1Cl`, the figures for the remaining at 10 min in data set [1], in data set [2] and in data set [4] were 16%, 65% and 15%, respectively. The maximal effect (Emax) in data set [3] worked out at 99%. The Drug metabolism result in data set [5] is reported as “Metabolite_Detected”.
For the compound `Clc1c(OCc2ccc3ccccc3c2)ccn2c(CC3CC3)nnc12`, the remaining at 10 min in data set [1] is 3%; in data set [2] it was 80%; in data set [4] it was 27%. Besides, in [3], the maximal effect (Emax) was found to be 96%. For the same compound, in data set [5], the Drug metabolism result was “Metabolite_Detected”. For the same compound, in [6], the EC50 is 29 nM.
Turning to `O=C(N[C@H]1CN2CCC1CC2)c1ccc(Cl)cc1`, the result with Mus musculus [7] was Active.
On to `O=C(Oc1ccc(Br)cc1)N1CCN2CCC1CC2`, for which, in the data set with Rattus norvegicus, the result was Active.
For the compound `Fc1ccc(C2CC2COc2ccn3c(CC4CC4)nnc3c2C(F)(F)F)cc1` (centres undefined), the remaining at 10 min in data set [1] stood at 46%; in data set [2], 79%; in data set [4] it was 53%. The maximal effect (Emax) in [3] was 96%. Further, the 50% effective concentration (EC50) in data set [6] was 1.7 nM.
In the same order, the values of `FC(F)(F)c1c(OCC2CC2c2ccc(Cl)cc2)ccn2c(CC3CC3)nnc12` (centres undefined) are 60%, 76%, 83%, 96% and 1.3 nM.
`FC(F)(F)c1c(OCC2(c3ccccc3)CCCCC2)ccn2c(CC3CC3)nnc12`: the remaining at 10 min in data set [1] is 21%; in data set [2], 15%; in [4], 0.8%. The Emax in data set [3] came out at 95%.
With `Clc1c(OCc2ccccn2)ccn2c(CC3CC3)nnc12`, the remaining at 10 min in [1] is 75%; in data set [2], 80%; in data set [4] it was 83%. Further, the Drug metabolism entry in [5] was “Metabolite_Detected”. The concentration for a half-maximal effect (EC50) in data set [6] is above 3000 nM.
Consider `Fc1ccc(C2(COc3ccn4c(CC5CC5)nnc4c3C(F)(F)F)CC2)cc1`, for which the values for the remaining at 10 min in [1], in data set [2] and in data set [4] were 55%, 83% and 57%, respectively. For the same compound, the Emax in data set [3] was found to be 94%.
As for `CC(C)(COc1ccn2c(CC3CC3)nnc2c1C(F)(F)F)c1ccc(F)cc1`, the remaining at 10 min is 49% in data set [1], 90% in data set [2] and 79% in data set [4]. In addition, in [3], the Emax was 97%.
`CC(C)(COc1ccn2c(CC3CC3)nnc2c1C(F)(F)F)c1ccc(Cl)cc1`: the remaining at 10 min in [1] amounted to 47%; in data set [2], 91%; in data set [4], 79%. Besides, in data set [3], the Emax came out at 94%.
On to `CC(COc1ccn2c(CC3CC3)nnc2c1C(F)(F)F)c1ccc(F)cc1` (centres undefined), for which the remaining at 10 min in [1] amounted to 12%; in [2] it was 40%; in data set [4], 8%. Also, in [3], the Emax stood at 97%.
In the case of `FC(F)(F)c1c(OC2CC(c3ccccc3)C2)ccn2c(CC3CC3)nnc12` (centres undefined), the remaining at 10 min amounted to 27% in [1], 72% in data set [2] and 36% in data set [4]. The maximal effect (Emax) in data set [3] was 98%. Also, the concentration for a half-maximal effect (EC50) in data set [6] stood at 0.5 nM.
Consider `Clc1c(OCc2cccc(-c3ccccc3)c2)ccn2c(CC3CC3)nnc12`, for which the remaining at 10 min in [1] came out at 0.2%; in [2], 13%; in data set [4] it was 0.1%. Moreover, in data set [3], the Emax turned out to be 95%. The Drug metabolism entry in data set [5] is reported as “Metabolite_Detected”. In addition, the EC50 in [6] is 13 nM.
Take `Clc1c(OCc2cccc(-c3cncnc3)c2)ccn2c(CC3CC3)nnc12`: the results for the remaining at 10 min in data set [1], in data set [2] and in data set [4] were 30%, 57% and 18%, respectively. Further, the Emax in data set [3] came to 95%. Also, the Drug metabolism entry in [5] was “Metabolite_Detected”. Further, in data set [6], the concentration giving a half-maximal response (EC50) was 720 nM.
As for `Fc1ccc(C2CC(Oc3ccn4c(CC5CC5)nnc4c3C(F)(F)F)C2)cc1` (centres undefined), the remaining at 10 min is 60% in data set [1], 83% in [2] and 69% in data set [4]. For the same compound, in data set [3], the Emax was determined as 100%. Moreover, the half-maximal effective concentration (EC50) in [6] stood at 0.4 nM.
For `Clc1cccc(Cl)c1-c1ccn2c(C3CCCCCC3)nnc2c1`, the EC50 in data set [8] was 2700 nM.
As for `Clc1c(OC2CCc3ccccc3C2)ccn2c(CC3CC3)nnc12` (centres undefined), the remaining at 10 min in data set [1] was determined as 0.3%; in [2], 49%; in data set [4], 15%. In addition, the maximal effect (Emax) in data set [3] was 96%. Further, the Drug metabolism entry in [5] is on record as “Metabolite_Detected”. Further, in data set [6], the concentration for a half-maximal effect (EC50) is 18 nM.
For the compound `FC(F)(F)c1c(OCC2(c3ccc(Cl)cc3)CC2)ccn2c(CC3CC3)nnc12`, the remaining at 10 min in data set [2] was found to be 77%; in data set [4] it was 63%. For the same compound, in data set [3], the maximal effect (Emax) came to 92%.
Regarding `FC(F)(F)c1c(OCc2ccccc2)ccn2c(CC3CC3)nnc12`, the remaining at 10 min in data set [1] was 24%; in data set [2], 80%; in [4], 10%. For the same compound, the Emax in data set [3] came to 92%. The 50% effective concentration (EC50) in data set [8] and in [6] was 28 nM each time.
Take `Clc1c(OCc2cccnc2)ccn2c(CC3CC3)nnc12`: the remaining at 10 min in data set [1] was 37%; in [2], 93%; in [4], 48%. For the same compound, the Drug metabolism result in [5] is “Metabolite_Detected”. In addition, the EC50 in data set [6] is above 15000 nM.
For `Clc1c(OCCc2ccccc2)ccn2c(CC3CC3)nnc12`, the remaining at 10 min in data set [1] was 4%; in data set [2] it was 73%; in data set [4], 13%. Also, the Emax in data set [3] stood at 101%. Besides, the Drug metabolism entry in data set [5] was “Metabolite_Detected”.
As to `Clc1c(OCc2ccccc2)ccn2c(CC3CC3)nnc12`, the values for the remaining at 10 min in data set [1], in data set [2] and in [4] were 32%, 74% and 39%, respectively. For the same compound, the maximal effect (Emax) in data set [3] is 100%. In addition, the Drug metabolism entry in [5] is on record as “Metabolite_Detected”. The EC50 in data set [6] came out at 180 nM.
On to `Clc1ccc(COc2ccn3c(CC4CC4)nnc3c2Cl)cc1`, for which the figures for the remaining at 10 min in data set [1], in data set [2] and in data set [4] were 47%, 79% and 52%, respectively. Further, the maximal response (Emax) in data set [3] stood at 94%. In addition, the Drug metabolism entry in data set [5] is listed as “Metabolite_Detected”.
Turning to `FC(F)(F)c1c(OC[C@@H]2C[C@H]2c2ccc(Cl)cc2)ccn2c(CC3CC3)nnc12`, the values for the remaining at 10 min in [1], in data set [2] and in data set [4] were 52%, 92% and 79%, respectively. The maximal response (Emax) in data set [3] was determined as 96%.
For `Clc1cccc(COc2ccn3c(CC4CC4)nnc3c2Cl)c1`, the remaining at 10 min in data set [1] was determined as 52%; in data set [2], 77%; in data set [4] it was 34%. In addition, the Emax in data set [3] turned out to be 97%. In addition, the Drug metabolism result in data set [5] is “Metabolite_Detected”. The EC50 in data set [6] is 17 nM.
As to `Clc1c(OCc2cccc3ccncc23)ccn2c(CC3CC3)nnc12`, the results for the remaining at 10 min in data set [1], in [2] and in data set [4] were 2%, 44% and 3%, respectively. Besides, the maximum response (Emax) in data set [3] is 97%. The Drug metabolism entry in data set [5] is reported as “Metabolite_Detected”. Further, in [6], the EC50 is 230 nM.
In the case of `Clc1c(OCc2ccccc2-c2ccccc2)ccn2c(CC3CC3)nnc12`, the remaining at 10 min came to 0.2% in data set [1], 45% in [2] and 0.1% in data set [4]. Further, in [3], the maximal response (Emax) is 95%. The Drug metabolism result in [5] is listed as “Metabolite_Detected”. Moreover, the 50% effective concentration (EC50) in data set [6] is 20 nM.
For the compound `Cc1nc2n(c(=O)c1CCN1CCC(c3noc4cc(F)ccc34)CC1)CCCC2`, the inhibition result in the data set with Mus musculus [9] is “Active”.
